Reference: PubChem BioAssay AID686920 (Broad Institute, 2013)

Each compound was assayed on A673 NR0B1-luciferase reporter, viability-normalised luminescence (assay: NR0B1 reporter signal reduction in A673 cells – cell-based, luciferase luminescence, cherry-pick, EWS/Fli inhibitor project, dose response (AID 686920)).

Compound | AC35 [µM]
C[C@@H]1CN([C@@H](C)CO)C(=O)c2cc(NC(=O)c3ccccc3)ccc2O[C@@H](C)CCCCO[C@H]1CN(C)C(=O)Nc1cccc2ccccc12 | 0.873
Cc1ccc(/C=C2\SC(=S)N(CCCC(=O)NNC(=O)c3ccccc3O)C2=O)cc1 | 2.09
C[C@@H]1CN([C@H](C)CO)C(=O)c2cc(NC(=O)c3ccccc3)ccc2O[C@@H](C)CCCCO[C@H]1CN(C)C(=O)Nc1cccc2ccccc12 | 2.07
CC(C)(C)C(=O)Nc1ccc(N=Nc2ccccc2)cc1 | 10.7
C[C@H]1CN([C@@H](C)CO)S(=O)(=O)c2ccc(C#Cc3ccncc3)cc2O[C@@H]1CN(C)S(=O)(=O)c1ccccc1 | 24.4
CCN(CC)C(=O)CN1C(=O)C(=O)c2ccccc21 | 42
COc1cc(/C=C/C(=O)CC(=O)/C=C/c2ccc(O)c(OC)c2)ccc1O | 7.91
COC(=O)Cc1[nH]n(-c2nc3ccccc3s2)c(=O)c1C(C)=Nc1ccc(C)cc1 | 0.17
C[C@@H]1O[C@@H](O[C@@H]2C=C3CC[C@@H]4C(CC[C@]5(C)[C@@H](c6ccc(=O)oc6)CC[C@]45O)[C@@]3(C)CC2)[C@H](O)[C@H](O)[C@H]1O (stereo partly specified) | < 0.03
CCc1nc(N)nc(N)c1-c1ccc(Cl)cc1 | 5.12
O=C1C(=O)N(Cc2cccs2)c2ccccc21 | 17
C[C@H](CO)N1C[C@H](C)[C@@H](CN(C)Cc2ccc(C(F)(F)F)cc2)OCCCC[C@H](C)Oc2ccc(NS(=O)(=O)c3ccc(F)cc3)cc2C1=O | 16.6
COc1ccc(/C=N/Nc2ccc(C(=O)O)cc2)cc1Br | 3.93
Cc1nn(-c2ccc(F)cc2)c2nc(N)c(C#N)c(-c3ccc(O)c(O)c3)c12 | 22.2
CC(C)NC(=O)N(C)C[C@@H]1Oc2cc(C#Cc3ccc(F)cc3)ccc2S(=O)(=O)N([C@H](C)CO)C[C@H]1C | 33.9
C[C@@H]1CN([C@@H](C)CO)C(=O)Cc2cc(N(C)C)ccc2O[C@H]1CN(C)Cc1ccc(C(=O)Nc2ccccc2N)cc1 | 11.4
Cc1ccsc1C(=O)OCC(=O)c1cc(C)n(C)c1C | 6.2
CCCNC(=O)N1[C@H](C#N)[C@H](c2ccc(C#Cc3cccc(F)c3)cc2)[C@H]1CO | 8.47
Nc1ccc(-c2cc3ccccc3c(=O)o2)cc1 | 0.485
CN(C[C@H]1N[C@@H](CO)[C@@H]1c1ccc(C2=CCCC2)cc1)C(=O)c1ccc(F)cc1 | 5.59
CCCCNC1=CC(=O)C(=O)c2ccccc21 | 6.17
CC(C)(C)c1ccc(Oc2ccc(NC(=O)c3ccccc3C(=O)O)cn2)cc1 | 5.78
CC(C)c1oc(=O)cc2c1[C@@H](O)[C@H]1OC(=O)[C@@]3(C)CC[C@@H](O)[C@@]2(C)C13 (stereo partly specified) | 4.21

Compound | AC35 [µM]
COc1ccc(/C=C/C(=O)c2ccc(C(=O)/C=C/c3ccc(OC)c(OC)c3)cc2)cc1OC | 6.78
N/C(=C\C(=O)c1cc(Cl)ccc1O)C(Cl)(Cl)Cl | 4.64
O=C(Nc1ccc(NC(=O)c2cc3ccccc3o2)cc1)c1ccc2c(c1)OCCO2 | 13.2
COc1ccc(S(=O)(=O)N2CC[C@@H]3[C@H](CO)Nc4ccc(-c5ccc(C#N)cc5)cc4[C@@H]32)cc1 | 4.3
Cc1ccc(N2C(=O)c3cccc4c(N)ccc(c34)C2=O)c2cccnc12 | < 0.03
OCC1OC(n2ccc3c2ncn2ncnc32)C(O)C1O (stereo unspecified) | 1.01
Cc1ccc2oc(/N=C(\N)NC(=O)C(C)(C)C)nc2c1 | 0.18
CCN1C/C(=C/c2ccc(OC)c(O)c2)C(=O)/C(=C/c2ccc(OC)c(O)c2)C1 | 17.3
COc1ccc(Nc2ncnc3ccc(Br)cc23)c(OC)c1 | 5.94
CC(C)=CCC/C(C)=C/CN1C(=O)N(c2ccc(F)cc2)[C@H]2C[C@@H](c3ccccc3)[C@@H](C)[C@@H](C(=O)N3CCOCC3)C[C@H]21 | 7.8
CC(C)(C)c1ccc(Oc2ccc(N)cn2)cc1 | 1.2
O=C(O)c1ccc(N/N=C/c2ccc3c(c2)OCO3)cc1 | 0.644
COc1ccc2oc(C(=O)NCCc3ccccc3)c(C)c2c1 | 6.25
COc1ccc(CCCNC(=O)C2Cc3c(-c4ccc5c(c4)OCO5)ccnc3O2)cc1 (stereo unspecified) | 10.5
NC(Cc1ccc(C(F)(F)F)cc1)c1csc(NC(=O)Nc2ccccc2Cc2ccccc2)n1 (stereo unspecified) | 17.6
CCc1ccc(S(=O)(=O)c2ccc(-n3nc(C)cc3N)cc2)cc1 | 31.4
Cc1cc(Br)ccc1N=C1C(=O)Nc2ccccc21 | 5.12
C/C(=N\OCc1cccc(C(=O)O)c1)c1ccc(Cl)cc1 | 0.832
COc1ccc(-c2cnc3c(NC=O)cc(-c4ccccc4OC)cn23)cc1OC | 0.065
C=C1C(=O)OC2C1CCC(C)C1C=CC(=O)C12C (stereo unspecified) | 15.5
COc1cccc(-c2cc(NC=O)c3ncc(-c4ccc(C(C)=O)cc4)n3c2)c1 | 6.25
N#C[C@H]1[C@H](c2ccc(-c3ccccc3F)cc2)[C@@H](CO)N1C(=O)Cc1ccccc1 | 3.31
Cc1cccc(N2CCN(C3C(=O)Nc4ccccc4-n4nnnc43)CC2)c1C (stereo unspecified) | 9.29
